structure (smiles),measurement,value
"COc1ccc(S(=O)(=O)N2CC=CC(c3ccccc3)C2C(=O)NO)cc1 (stereo not shown) [Example 2, N-hydroxy-1-(4-methoxybenzenesulfonyl)-3-phenyl-1,2,3,6-tetrahydropyridine-2-carboxamide]",melting point,151 to 154 °C (dec.)

# Source: US6509337B1, “Arylsulfonyl Hydroxamic Acid derivatives as MMP and TNF inhibitors” (Pfizer Inc., priority 1997, dated 2003)
